According to publication PMC9057582, “HIF inhibitor 32-134D eradicates murine hepatocellular carcinoma in combination with anti-PD1 therapy” (The Journal of Clinical Investigation, 2022):

Tested on: HIF target genes in Hep3B cells
Assay: RT-qPCR of endogenous HIF target gene expression in Hep3B cells
Assay type: cell-based, human
Excerpt: Based on this hit, we synthesized analogs in which either halogen substitutions to the indole groups were altered or the central thiazole was replaced by imidazole, isoxazole, oxadiazole, oxazole, pyrazinone, pyridazine, pyrazine, pyrazole, pyridine, thiadiazole, triazine, or triazole. […] We focused on analyzing the effect of the bis-bromoindole thiazole 32-134D and the bis-indole thiadiazole 33-063 on endogenous HIF target gene expression in Hep3B cells. […] For comparison, we tested the effect of PT2385, which inhibited EPO, NDRG1, ANGPTL4, and VEGFA expression but had no effect on CA9, which is consistent with its HIF-2–selective mechanism of action ([44]). None of the compounds had any effect on RPL13A expression, which is neither induced by hypoxia nor regulated by HIFs (Supplemental Figure 2D).
Human Hep3B and mouse Hepa1-6 cells were purchased from ATCC and grown in high-glucose (4.5 mg/mL) Dulbecco’s modified Eagle’s medium supplemented with 10% (vol/vol) fetal bovine serum and 1% penicillin/streptomycin at 37°C in a 5% CO2/95% air incubator (Supplemental Table 6). Human cell line identity was authenticated by analysis of short tandem repeats, and all cell lines were maintained mycoplasma free, using PCR-based assays conducted at the Johns Hopkins University Genetic Resources Core Facility (JHU GRCF). Cells were subjected to hypoxia in a controlled atmosphere chamber (PLAS Labs) with ambient gas mixture containing 1% O2 and 5% CO2.
RNA was extracted using TRIzol Reagent. Quantitative real-time PCR was conducted using SYBR Green PCR Master Mix and reactions were run using a Bio-Rad thermal cycler. Primer sequences and reagent sources are listed in Supplemental Table 5. The mRNA expression of target genes was normalized to the expression of 18S rRNA and the fold change (FC) was calculated based on the threshold cycle (Ct) as FC = 2^–Δ(ΔCt), where ΔCt = Cttarget gene – Ct18S rRNA and Δ(ΔCt) = ΔCttreatment – ΔCtcontrol. For RNA-seq, total RNA was isolated and treated with DNase (Qiagen). The JHU GRCF High-Throughput Sequencing facility prepared libraries and performed RNA-seq. The RNA-seq data were processed and interpreted using Genialis Expressions software (https://www.genialis.com/expressions/). An automated data analysis pipeline run in the Genialis platform consisted of the following: Sequence quality checks were performed on raw and trimmed reads with FastQC. Bbduk was used to trim adapters and filter out poor quality reads. Trimmed reads were then mapped to the STAR index (ENSEMBL 100) reference genome using the STAR ([93]) aligner. Gene expression levels were quantified with featureCounts ([94]), and differential gene expression analyses were performed with DESeq2 ([95]). […] Differential expression was determined with an FDR of less than 0.05 and mRNA FC of greater than 1.5 to identify hypoxia-induced genes and genes inhibited by 32-134D. Data used in this study have been deposited in the NCBI Gene Expression Omnibus database (GEO GSE195997).
Supplemental Figure 2. Effect of 32-134D on gene expression in Hep3B cells. (A-D) Hep3B cells were exposed to 20% O2 in the presence of vehicle (first bar; no fill) or 1% O2 in the presence of: vehicle (blue bar) or the indicated concentration of 32-134D (bars with red fill) or 33-063 (bars with green fill), or PT2385 (bars with brown fill) for 24 hours and the indicated mRNAs were quantified by reverse transcription and quantitative real-time PCR (qPCR). Data are presented as mean + SEM (n = 3). *p < 0.05 vs white; **p < 0.01 vs blue (ANOVA with Bonferroni post-test). […]
(G-H) Analysis of HIF-1a (G) and HIF-2a (H) […]
mRNA expression in Hep3B cells exposed to vehicle or 32-134D at 20% or 1% O2 for 24

## Brc1ccc2c(-c3csc(-c4c[nH]c5c(Br)cccc45)n3)c[nH]c2c1 [Compound 32-134D]
Hep3B cells, 1% O2, 24 hours
  hypoxia-induced ANGPTL4, VEGFA, NDRG1 and EPO mRNA expression: significantly inhibited
  hypoxia-induced CA9 mRNA expression (activated by HIF-1 only): significantly inhibited
Hep3B, 24 hours
  HIF-1α or HIF-2α mRNA expression: no effect
